Values quoted from earlier work, collected in patent publication US9814693B2 (priority 2012, dated 2017).
Counter-ions that a name gives are not always drawn.

Experiments:
[1] = tested on: CML; settings: first-line
[2] = tested on: HeLa cell cultures
[3] = tested on: Barle's L cells; settings: percentage of control cloning efficiency
[4] = tested on: Ehrlich ascites tumor cells
[5] = tested on: L1210 leukemia; settings: mice, early form of L1210 leukemia, various doses
[6] = tested on: NK/Ly tumor; settings: NK/Ly tumor-bearing mice
[7] = tested on: Ehrlich ascites tumor
[8] = tested on: S180 ascites tumors; settings: S180 ascites tumor
[9] = tested on: intracerebral murine ependymoblastomas; settings: intracerebral tumors
[10] = tested on: mice
[11] = tested on: mice; settings: after the start of treatment (time not given); these and previous studies
[12] = tested on: rabbits; settings: i.v. 2.5 and 0.25 mg/kg every second day for 30 or 70 days
[13] = tested on: Chinese hamster cell cultures; settings: low doses, in vitro
[14] = tested on: rats
[15] = tested on: rabbits
[16] = tested on: beagle dogs
[17] = tested on: erythrocytes; settings: fresh whole dog blood, 37° C., within 2 hours
[18] = tested on: erythrocytes
[19] = normal brain and intracerebral tumor tissue
[20] = compared with all the diepoxyhexitols
[21] = solution in distilled water
[22] = tested on: Harding-Passey melanoma
[23] = in vivo
[24] = not given; remark: listed apart in the source

Cc1ccc(NC(=O)c2ccc(CN3CCN(C)CC3)cc2)cc1Nc1nccc(-c2cccnc2)n1 [Gleevec, imatinib mesylate]
estimated overall survival rate ([1]; CML patients, following two years): 91%
patients with cytogenetic response [1]: up to 60%
patients free of disease worsening ([1]; following two years): ~90%

OC(C1CO1)C(O)C1CO1 (centres unmarked) [dianhydrogalactitol, 1,2:5,6-Dianhydrogalactitol]
cytomorphologic effect ([2]; 100-μg dose): complete cellular disintegration
concentration giving 50 percent survival (cloning efficiency) [3]: 4 µg/mL
multinucleated cells, compared with mannitol mustard or dibromodulcitol ([4]; Ehrlich ascites tumor cells): more frequently
time of earliest detectable ultrastructural effects ([4]; larger dose (7.5 mg/kg i.p.), after administration): 3 h
time at which ultrastructural effect could be detected ([4]; smaller doses (3.7 mg/kg i.p.), after treatment): 72 to 96 h
prolongation of lifespan [5]: 50%-200%
increase in lifespan [6]: 200%
animals recovered after treatment [7]: Fifty
tumor weight inhibition ([7]; 0.75 mg/kg (one-sixtieth of the LD50)): 68%
animals recovered after treatment [8]: Fifty
antitumor activity [9]: activity
atrophy of the spleen and lymph nodes, compared with dibromodulcitol ([10]; acute toxicity): more marked
time of death, compared with dibromodulcitol ([10]; acute toxicity): died earlier
symptoms at the LD50 ([10]; animals treated with the LD50 (15 mg/kg)): gastrointestinal symptoms (including weight loss) were dominant
LD80 ([10]; mice, single dose): 18 mg/kg
LD50 ([10]; mice, single dose, survivors observed 21 days): 15 mg/kg
drug accumulation of five cytostatic hexitol derivatives [11]: 0%
most marked alterations [12]: cell population reductions (especially of the myeloid elements) in the bone marrow
chromosome aberrations [13]: induced characteristic chromosome aberrations
changes in the parenchymal organs ([14]; single 10, 5 or 2.5 mg/kg dose, 1 hour to 21 days): No changes
LD50 ([14]; single dose): 10 mg/kg
effect on platelet counts ([15]; repeated injections of smaller doses (17×2.5, 17×0.25 mg/kg i.v.)): no changes in platelet counts
effect on platelets ([15]; single 14.0 mg/kg i.v.): persistent thromobocytopenia
decrease in the granulocyte count ([15]; single 14.0 mg/kg i.v., disappeared in 30 days): 50%
LD50 ([15]; single i.v. dose): 14.0 mg/kg
dose dependence of distribution and elimination (3 and 6 mg/kg, one dog): dose-independent
mean Cl (dogs, i.v. 3 and 6 mg/kg): 23.4 mL/min/kg
mean value of V (dogs, i.v. 3 and 6 mg/kg): 462 mL/kg
mean value of VDss (dogs, i.v. 3 and 6 mg/kg): 779 mL/kg
mean t1,2,β (dogs, i.v. 3 and 6 mg/kg, intact drug in plasma): 26.6 min
death, time after injection ([16]; dog 1, 6 mg/kg i.v. on day 8 after 3 mg/kg on day 1): 7 days
death, time after administration ([16]; dog 2, 6 mg/kg i.v.): 12 days
doses at which toxicity occurs ([16]; dog, i.v.): greater than 3 mg/kg
findings associated with death ([16]; dogs given 6 mg/kg i.v.): bone marrow hypoplasia, leucopenia, and thrombocytopenia
incubated dose bound to erythrocytes [17]: 37.7%
initially present drug remaining with the erythrocytes ([18]; after dialysis for 14 hours): 36%
initially erythrocyte-bound drug lost to the dialysis medium ([18]; within 2 hours, pH 7.4, 37° C.): 50%
blood-brain barrier passage [19]: rapidly crosses the blood-brain barrier
chemical stability [20]: most chemically stable
local effect of the solution [21]: slight, locally irritating effect

O[C@H]([C@H](O)[C@@H](O)CBr)[C@H](O)CBr [dibromodulcitol]
mitotic index ([2]; 10-μg dose, untreated control 2.9%): 0
concentration giving 50 percent survival (cloning efficiency) [3]: 75 µg/mL
prolongation of lifespan [5]: 40%
increase in lifespan [6]: 90%
effect on the tumor ([7]; doses equitoxic to 0.75 mg/kg dianhydrogalactitol): no effects
relative effectiveness [22]: more effective than dianhydrogalactitol
absorption by the oral route [23]: rapid and fairly complete
solubility in water [24]: hardly soluble in water
drug accumulation of five cytostatic hexitol derivatives [11]: 62%

CS(=O)(=O)OC[C@@H](O)[C@@H](O)[C@H](O)[C@H](O)COS(C)(=O)=O [mannitol myleran]
drug accumulation of five cytostatic hexitol derivatives [11]: 45%
